Results published in article doi:10.1101/2025.03.13.643086, “Granzyme-targeting quenched activity-based probes for assessing tumor response to immunotherapy” (bioRxiv, 2025).

System: GzmB activity in NK-92 cells
Assay: Flow cytometry analysis of protein labeling by ABPs in NK-92 and MDA-MB-231 cells
Assay type: cell-based, human
Settings: 5 μM
Experimental: Figure 3. GzmB ABPs selectively label active GzmB in cells. (A) Gel-based analysis of GzmB labeling by ABPs in NK-92 cells. 5x10^5 NK-92 cells were incubated with each ABP at varying concentrations for 2 h at 37 °C. After cell lysis, protein samples were analyzed by SDS-PAGE and in-gel fluorescence scanning for Cy5 signal. Expression of GzmB was confirmed by western blotting. (B) Gel-based analysis of GzmB labeling by qABP 10 in different cells. 2x10^6 NK-92, MDA-MB-231, Jurkat, and HEK cells were incubated with compound 10 (5 μM) at 37 °C for 2 h. After cell lysis, protein samples were analyzed by SDS-PAGE and in-gel fluorescence scanning for Cy5 signal. […] Protein samples were analyzed by SDS-PAGE and in-gel fluorescence scanning for Cy5 signal. […] Top: Histogram; Bottom: Mean fluorescence intensity (MFI) in MDA-MB-231 cells. […]
Histogram of flow cytometry data for NK-92 cells incubated with qABP 10. Right: Quantification of mean Cy5 fluorescence intensity. […]
3-5 mice/group. For all studies, mice were monitored by daily observation and serial tumor measurements and body weights.
Mice were treated with 20 mg/kg BEC i.v., 10 mg/kg anti-PD1 i.p., 5 mg/kg anti-CTLA4 i.p. or a combination of 10 mg/kg anti-PD-1 and 5 mg/kg anti-CTLA4. […] On day 9 post-treatment, the mice were injected with 2 nmol/g GzmB qABP i.v., followed by fluorescence imaging at 2, 4, 8, and 24 h. […]

CC[C@H](C)[C@H](NC(=O)CCCCCN1/C(=C/C=C/C=C/C2=[N+](CC)c3ccc(S(=O)(=O)O)cc3C2(C)C)C(C)(C)c2cc(S(=O)(=O)O)ccc21)C(=O)N[C@@H](CCC(=O)O)C(=O)N1CCC[C@H]1C(=O)NC(CS(=O)(=O)O)P(=O)(Oc1ccc(CCNC(=O)C2CCN(S(=O)(=O)c3ccccc3-c3c4ccc(=[N+]5CCc6ccccc65)cc-4oc4cc(N5CCc6ccccc65)ccc34)CC2)cc1)c1ccccc1 (some centres unmarked) [Compound 10, Cy5-IEPCya^PhP-QSY21]
fluorescence intensity in NK-92 cells relative to GzmB non-expressing MDA-MB-231 cells: approximately 9.1 fold
signal-to-noise (S/N), NK-92 vs MDA-MB-231 cells (37 °C, 2 h): 9.09
